# Laboratory results as given in patent US5135910A, “Nisin compositions for use as enhanced, broad range bactericides” (The Public Health Research Institute of the City of New York, priority 1991, dated 1992).
# Columns and labels:
# E. coli = assay: bactericidal activity, percent bacterial survival, E. coli suspension; assay type: cell-based, Escherichia coli; conditions: for Percentage E. coli Survival at 2 hours: 20 mM Tris pH 8.0, 37° C.
# Experimental: (§1) All tests in the following examples were performed at 37° C. The efficacy of the enhanced broad range bactericides was determined by assaying bactericidal activity as measured by the percent bacterial survival after treatment with the bactericide. Generally, after incubation of a 10^7 cell per ml suspension of target species with the novel bactericide for specified lengths of time, bacteria were collected by centrifugation for 2 minutes. […] Surviving bacteria were determined by scoring colony forming units (CFU) after incubation for 24-48 hours at 37° C.
# The effects of the bactericide were measured as a function of percentage bacteria survival after 2 hours.
# Incubations were performed in 20 mM Tris, pH 7.0 at 37° C.
# S. typhimurium = assay: bactericidal activity, percent bacterial survival, S. typhimurium suspension; assay type: cell-based, Salmonella typhimurium; conditions: for Percentage S. typhimurium Survival at 3 hours: 20 mM Tris pH 8.0, 37° C.
# Experimental: as §1
# The control (Test #1) is identical to the control of Example 1 (Table 1).
# Coryneform bacteria = assay: bactericidal activity, percent survival, axillary Coryneform bacteria; assay type: cell-based; conditions: 20 mM Tris-HCl pH 8.0
# Experimental: (§2) All tests in the following examples were performed at 37° C. The efficacy of the enhanced broad range bactericides was determined by assaying bactericidal activity as measured by the percent bacterial survival after treatment with the bactericide. Generally, after incubation of a 10^7 cell per ml suspension of target species with the novel bactericide for specified lengths of time, bacteria were collected by centrifugation for 2 minutes. […] Surviving bacteria were determined by scoring colony forming units (CFU) after incubation for 24-48 hours at 37° C. An effective bactericide according to this invention is one which allows less than 0.1% of the initial viable count of the bacteria to survive.
# (§3) Incubations were performed in 20 mM TrisHCl, pH 8.0 at 37° C.
# Streptococcus mutans [1] = assay: bactericidal activity, percent survival, Streptococcus mutans in Tris buffer; assay type: cell-based; conditions: for % Survival (S. mutans kinetics): nisin 0, 1.0 mM EDTA, Tris-HCl pH 7.3
# Experimental: (§6) All tests in the following examples were performed at 37° C. The efficacy of the enhanced broad range bactericides was determined by assaying bactericidal activity as measured by the percent bacterial survival after treatment with the bactericide. Generally, after incubation of a 10^7 cell per ml suspension of target species with the novel bactericide for specified lengths of time, bacteria were collected by centrifugation for 2 minutes. The bacterial pellet was washed free of the bactericide with a rescue buffer, termed herein Phage buffer (50 mM Tris-HCl buffer pH 7.8, 1 mM MgSO4, 4 mM CaCl2, 0.1 M Nacl, and 0.1% gelatin), resuspended and serially diluted into Phage buffer, and 100 μl of the suspended bacteria were spread on nutrient agar plates. Surviving bacteria were determined by scoring colony forming units (CFU) after incubation for 24-48 hours at 37° C.
# The suspensions were incubated for various times ranging from 0.5 to 60 minutes with the bactericides. The bactericidal efficacy of the bactericides was estimated by determining the percent survival of bacteria.
# Incubations were performed in 20 mM TrisHCl, pH 7.3 at 37° C.
# [2] = test system: S. typhimurium on chicken muscle; assay: bactericidal activity towards S. typhimurium on chicken muscle (unadhered cells); assay type: cell-based, Salmonella typhimurium
# Experimental: as §2
# Incubations were performed in either 50 mM sodium acetate, pH 5.0, or 20 mM […], pH 8.0 at 37° C.
# Cubes of chicken muscle were cleansed with sodium hypochlorite and povidone iodine prior to use. To inoculate the tissue, the cubes of chicken muscle were dipped into a 10^8 cells/ml suspension of S. typhimurium in 20 mM Tris HCl, pH 8.0. Excess moisture was removed from dipped cubes by tapping. The chicken samples were placed into sufficient buffer containing the nisin composition to cover the tissue and incubated for 2 hours at 37° C. after which the tissue was removed to sufficient Phage buffer to cover the tissue. The bacteria remaining in the test solution were collected by centrifugation, washed with Phage buffer, and combined with bacteria washed from the tissue by Phage buffer. The combined samples (termed "unadhered" cells) were serially diluted and 100μl aliquots were plated for determination of surviving bacteria.
# (§4) Cubes of chicken muscle were cleansed with sodium hypochlorite and povidone iodine prior to use. To inoculate the tissue, the cubes of chicken muscle were dipped into a 10^8 cells/ml suspension of S. typhimurium in 20 mM Tris HCl, pH 8.0. Excess moisture was removed from dipped cubes by tapping. The tissue was placed into sufficient buffer containing the nisin compositions to cover the tissue, and incubated for 2 hours at 37° C. after which the tissue was removed to sufficient Phage buffer to cover the tissue. The bacteria remaining in the test solution were collected by centrifugation, washed with Phage buffer, and combined with bacteria washed from the tissue by Phage buffer. The combined samples (termed "unadhered" cells) were serially diluted and 100 μl aliquots were plated for determination of surviving bacteria.
# as §4, with “cleaned” for “cleansed”, “with” for “with sodium”, “50” for “20”, “sodium acetate buffer,” for “Tris HCl,”, “5.0.” for “8.0.”, “containing” for “containing the”
# K. pneumoniae = assay: bactericidal activity, percent bacterial survival, K. pneumoniae suspension; assay type: cell-based, Klebsiella pneumoniae; conditions: 20 mM Tris pH 8.0, 37° C.
# Experimental: as §1
# The effect was measured as a function of percentage bacterial survival after 2 hours.
# Listeria monocytogenes [3] = assay: bactericidal activity, percent survival, Listeria monocytogenes in Tris buffer; assay type: cell-based; conditions: 20 mM Tris-HCl pH 8.0
# Experimental: as §2, §3
# Staphyloccus aureus = assay: bactericidal activity, percent survival, Staphylococcus aureus; assay type: cell-based
# Experimental: as §2
# Incubations were performed in 50 mM sodium acetate buffer, pH 5.0 or 20 m
# TrisHCl buffer, pH 8.0 at 37° C.
# Listeria monocytogenes [4] = assay: bactericidal activity towards Listeria monocytogenes in milk; assay type: cell-based
# Experimental: as §2
# An example of where the application of nisin is limited by its available activity is illustrated by the data in Table 15B.
# (§5) Incubations were in milk at 37° C.
# Streptococcus agalactiae = assay: bactericidal activity towards Streptococcus agalactiae in milk; assay type: cell-based
# Experimental: as §2
# However, the combination of the two agents, 0.1% monolaurin and nisin 0.2 μg/ml, is extremely potent towards S. agalactiae. […] Thus, when the application of nisin is limited by its available activity, a bactericide comprising nisin with a surfactant can be expected to be more useful.
# as §5
# Streptococcus mutans [5] = assay: rapid bactericidal activity towards Streptococcus mutans in the presence of divalent cation, 10% fetal calf serum; assay type: cell-based; conditions: nisin 3, no EDTA, CaCl3 0 mM
# Experimental: as §6
# Incubations performed in 10% Fetal Calf Serum at 37° C.
compound,measurement,setting,value
Triton X-100,Percentage E. coli Survival at 2 hours,"E. coli; nisin 0, EDTA 0, Triton X-100 1.0%",100%
same,bactericidal activity towards E. coli,"E. coli; tests #3 and #4, Table 4",no significant bactericidal activity
O=C([O-])CN(CCN(CC(=O)[O-])CC(=O)O)CC(=O)O.[Na+].[Na+] [EDTA],% Survival at 2 hours (S. typhimurium),"S. typhimurium; nisin 0, EDTA 1.0 mM, BSA 1.0%, 20 mM Tris pH 8.0",63%
same,% Survival at 2 hours (S. typhimurium),"S. typhimurium; nisin 0, EDTA 2.0 mM, 20 mM Tris pH 8.0",8.7%
same,% Survival at 2 hours (S. typhimurium),"S. typhimurium; nisin 0, EDTA 2.0 mM, 50 mM sodium acetate pH 5.0",38.7%
same,% Survival at 2 hours (S. typhimurium),"S. typhimurium; nisin 0, EDTA 10 mM, 20 mM Tris pH 8.0",14%
same,% Survival at 2 hours (S. typhimurium),"S. typhimurium; nisin 0, EDTA 10 mM, 50 mM sodium acetate pH 5.0",15.2%
same,Percentage S. typhimurium Survival at 3 hours,"S. typhimurium; nisin 0, EDTA 20 mM",2.5%
same,% Survival at 2 hours (S. typhimurium),"S. typhimurium; nisin 0, EDTA 50 mM, 20 mM Tris pH 8.0",11.4%
same,% Survival at 2 hours (S. typhimurium),"S. typhimurium; nisin 0, EDTA 50 mM, 50 mM sodium acetate pH 5.0",3.5%
same,% Survival at 2 hours (S. typhimurium),"S. typhimurium; nisin 0, EDTA 100 mM, 20 mM Tris pH 8.0",45%
same,% Survival 2 hr (Coryneform bacteria),"Coryneform bacteria; nisin 0, EDTA 0.3 mM",4.6%
same,% Survival 2 hr (Coryneform bacteria),"Coryneform bacteria; nisin 0, EDTA 1.0 mM",3.6%
same,% Survival 2 hr (Coryneform bacteria),"Coryneform bacteria; nisin 0, EDTA 3.0 mM",8%
same,% Survival 2 hr (Coryneform bacteria),"Coryneform bacteria; nisin 0, EDTA 10 mM",36%
same,% Survival (S. mutans kinetics),Streptococcus mutans [1]; incubation 3 min,100%
same,% Survival (S. mutans kinetics),Streptococcus mutans [1]; incubation 60 min,100%
same,% Survival at 2 hours,"[2]; nisin 0, EDTA 1.0 mM, BSA 1.0%, pH 8.0",27%
same,"% Survival at 2 hours, unadhered cells","[2]; nisin 0, EDTA 10 mM, pH 5.0",6.4%
same,"% Survival at 2 hours, unadhered cells","[2]; nisin 0, EDTA 10 mM, pH 8.0",5.2%
same,% Survival at 2 hours (K. pneumoniae),"K. pneumoniae; nisin 0, EDTA 20 mM",22%
same,% Survival after 2 hr (L. monocytogenes),"Listeria monocytogenes [3]; nisin 0, EDTA 1.0 mM",84%
same,% Survival 2 hr (S. aureus),"Staphyloccus aureus; nisin 0, EDTA 0.3 mM, pH 8.0",100%
same,% Survival 2 hr (S. aureus),"Staphyloccus aureus; nisin 0, EDTA 1.0 mM, pH 8.0",81%
same,% Survival 2 hr (S. aureus),"Staphyloccus aureus; nisin 0, EDTA 3.0 mM, pH 5.0",100%
same,% Survival 2 hr (S. aureus),"Staphyloccus aureus; nisin 0, EDTA 3.0 mM, pH 8.0",100%
same,% Survival 2 hr (S. aureus),"Staphyloccus aureus; nisin 0, EDTA 10 mM, pH 8.0",100%
same,% Survival 2 hr (S. aureus),"Staphyloccus aureus; nisin 0, EDTA 30 mM, pH 8.0",100%
same,% survival at 1 min (E. coli),"E. coli; nisin 0, EDTA 1.0 mM, 20 mM Tris pH 7.0",100%
monooleate,bactericidal activity towards L. monocytogenes,Listeria monocytogenes [4]; monooleate by itself,no bactericidal activity
same,% Survival 2 hr (L. monocytogenes),"Listeria monocytogenes [4]; nisin 0, monooleate 0.1%, 37° C.",67%
same,% Survival 2 hr (L. monocytogenes),"Listeria monocytogenes [4]; nisin 0, monooleate 1.0%, 37° C.",63%
"CCCCCCCCCCCC(=O)OCC(O)CO (stereo not drawn) [Monolaurin, monolaurin]",bactericidal activity towards Streptococcus agalactiae,Streptococcus agalactiae; monolaurin at concentrations up to 0.1%,little significant bactericidal activity
same,% survival at 2 h (S. agalactiae),"Streptococcus agalactiae; nisin 0, monolaurin 0.01%, 37° C.",100%
same,% survival at 2 h (S. agalactiae),"Streptococcus agalactiae; nisin 0, monolaurin 0.1%, 37° C.",4.5%
nisin,% Survival at 2 hours (S. typhimurium),"S. typhimurium; Table 8 test 1: nisin 10 μg/ml, EDTA 0, BSA 0",51.3%
same,% Survival at 2 hours (S. typhimurium),"S. typhimurium; Table 8 test 1: nisin 100 μg/ml, EDTA 0, BSA 0",1.6%
same,Percentage S. typhimurium Survival at 3 hours,"S. typhimurium; nisin 10 μg/ml, EDTA 0 mM",51.3%
same,Percentage S. typhimurium Survival at 3 hours,"S. typhimurium; nisin 50 μg/ml, EDTA 0 mM",7.0%
same,% Survival at 2 hours (S. typhimurium),"S. typhimurium; nisin 100 μg/ml, EDTA 0, 20 mM Tris pH 8.0 (Table 6)",4%
same,% Survival at 2 hours (S. typhimurium),"S. typhimurium; nisin 100 μg/ml, EDTA 0, 50 mM sodium acetate pH 5.0",0.6%
same,Percentage S. typhimurium Survival at 3 hours,"S. typhimurium; nisin 100 μg/ml, EDTA 0 mM",1.6%
same,% Survival 2 hr (Coryneform bacteria),"Coryneform bacteria; nisin 3 μg/ml, EDTA 0",0.22%
same,% Survival after 2 hr (S. mutans),"Streptococcus mutans [1]; nisin 0.1 μg/ml, EDTA 0, 20 mM Tris-HCl pH 8.0",4.3%
same,% survival at 1 min. (S. mutans),Streptococcus mutans [5],2.9%
same,"% Survival at 2 hours, unadhered cells","[2]; nisin 300 μg/ml, EDTA 0, pH 5.0",0.1%
same,"% Survival at 2 hours, unadhered cells","[2]; nisin 300 μg/ml, EDTA 0, pH 8.0",7.5%
same,"% Survival at 2 hours, unadhered cells","[2]; nisin 300 μg/ml, EDTA 0, pH 8.0, contains 1% BSA",0.02%
same,% survival at 2 h (S. agalactiae),"Streptococcus agalactiae; nisin 0.02 μg/ml, monolaurin 0, 37° C.",100%
same,% survival at 2 h (S. agalactiae),"Streptococcus agalactiae; nisin 0.2 μg/ml, monolaurin 0, 37° C.",2.2%
same,bactericidal activity towards Streptococcus agalactiae,Streptococcus agalactiae; nisin at concentrations up to 0.2 μg/ml,does not exhibit significant bactericidal activity
same,% Survival at 2 hours (K. pneumoniae),"K. pneumoniae; nisin 100 μg/ml, EDTA 0",50%
same,% Survival at 2 hours (K. pneumoniae),"K. pneumoniae; nisin 300 μg/ml, EDTA 0",38%
same,% Survival after 2 hr (L. monocytogenes),"Listeria monocytogenes [3]; nisin 3.0 μg/ml, EDTA 0",0.71%
same,% Survival 2 hr (L. monocytogenes),"Listeria monocytogenes [4]; nisin 100 μg/ml, monooleate 0, 37° C.",0.56%
same,% Survival 2 hr (S. aureus),"Staphyloccus aureus; nisin 3.0 μg/ml, EDTA 0, pH 5.0",0.6%
same,% Survival 2 hr (S. aureus),"Staphyloccus aureus; nisin 3.0 μg/ml, EDTA 0, pH 8.0",7.4%
same,Percentage E. coli Survival at 2 hours,"E. coli; nisin 30 μg/ml, EDTA 0, Triton X-100 0",27%
same,Percentage E. coli Survival at 2 hours,"E. coli; nisin 100 μg/ml, EDTA 0, Triton X-100 0",25%
same,Percentage E. coli Survival at 2 hours,"E. coli; nisin 300 μg/ml, EDTA 0, Triton X-100 0",8.5%
